Test results from patent publication US6638956B2, “Pesticidal 1-arylpyrazoles” (Rhone-Poulenc, Inc., priority 1996, dated 2003).

`CS(=O)(=O)c1c(C(=N)NO)nn(-c2c(Cl)cc(C(F)(F)F)cc2Cl)c1N` [Compound 46, 5-Amino-1-[2,6-dichloro-4-(trifluoromethyl)phenyl]-N-hydroxy-4-methylsulfonyl-1H-pyrazole-3-carboximidamide] and `CCS(=O)(=O)c1c(C(=N)NO)nn(-c2c(Cl)cc(C(F)(F)F)cc2Cl)c1N` [Compound 48, 5-Amino-1-[2,6-dichloro-4-(trifluoromethyl)phenyl]-N-hydroxy-4-ethylsulfonyl-1H-pyrazole-3-carboximidamide] fall in the same range of melting point: 109 to 111 °C for the first, 109 to 111 °C for the second.

Going from `CC(C)C(=O)NNC(=N)c1nn(-c2c(Cl)cc(C(F)(F)F)cc2Cl)c(N)c1[S+](C)[O-]` (stereo not drawn) [Compound 70, 5-Amino-1-[2,6-dichloro-4-(trifluoromethyl)phenyl]-4-methylsulfinyl-N-(isopropylcarbonyl)amino-1H-pyrazole-3-carboximidamide] to `C[S+]([O-])c1c(C(=N)NN)nn(-c2c(Cl)cc(C(F)(F)F)cc2Cl)c1N` (stereo not drawn) [Compound 69, 5-Amino-1-[2,6-dichloro-4-(trifluoromethyl)phenyl]-4-methylsulfinyl-N-amino-1H-pyrazole-3-carboximidamide], the melting point rises from 118 °C to 210 °C.

Compared with `C[S+]([O-])C1=C(N)N(c2c(Br)cc(C(F)(F)F)cc2Br)N(O)C1C(=N)N` (stereo not drawn) [Compound 61, 5-Amino-1-[2,6-dibromo-4-(trifluoromethyl)phenyl]-4-methylsulfinyl-2-N-hydroxy-1H-pyrazole-3-carboximidamide], `CNc1c([S+](C)[O-])c(C(=N)NO)nn1-c1c(Cl)cc(C(F)(F)F)cc1Cl` (stereo not drawn) [Compound 55, 1-[2,6-Dichloro-4-(trifluoromethyl)phenyl]-N-hydroxy-5-methylamino-4-methylsulfinyl-1H-pyrazole-3-carboximidamide] is lower in melting point: 240 to 241 °C for the first, 191 to 192 °C for the second.

First: CCCCCCCC(=O)NNC(=N)c1nn(-c2c(Cl)cc(C(F)(F)F)cc2Cl)c(N)c1[S+](C)[O-] (stereo not drawn) [Compound 71, 5-Amino-1-[2,6-dichloro-4-(trifluoromethyl)phenyl]-4-methylsulfinyl-N-(n-heptylcarbonyl)amino-1H-pyrazole-3-carboximidamide]
Second: CCNc1c([S+](C)[O-])c(C(=N)NO)nn1-c1c(Cl)cc(C(F)(F)F)cc1Cl (stereo not drawn) [Compound 56, 1-[2,6-Dichloro-4-(trifluoromethyl)phenyl]-5-ethylamino-N-hydroxy-4-methylsulfinyl-1H-pyrazole-3-carboximidamide]
The melting point of the first is lower: 122 °C for the first, 192 to 193 °C for the second.

First: CCNc1c([S+](C)[O-])c(C=NO)nn1-c1c(Cl)cc(C(F)(F)F)cc1Cl (stereo not drawn) [Compound 2, 1-[2,6-Dichloro-4-(trifluoromethyl)phenyl]-5-ethylamino-4-methylsulfinyl-1H-pyrazole-3-carboxaldehyde oxime]
Second: CNc1c([S+](C)[O-])c(C=NO)nn1-c1c(Cl)cc(C(F)(F)F)cc1Cl (stereo not drawn) [Compound 3, 1-[2,6-Dichloro-4-(trifluoromethyl)phenyl]-5-methylamino-4-methylsulfinyl-1H-pyrazole-3-carboxaldehyde oxime]
The melting point of the first is lower: 158 to 161 °C for the first, 162 °C for the second.

First: C[S+]([O-])c1c(C(=N)NO)nn(-c2c(Cl)cc(C(F)(F)F)cc2Cl)c1NCCS(=O)(=O)c1ccccc1 (stereo not drawn) [Compound 60, 1-[2,6-Dichloro-4-(trifluoromethyl)phenyl]-4-methylsulfinyl-5-[2-(phenylsulfonyl)ethylamino]-N-hydroxy-1H-pyrazole-3-carboximidamide]
Second: C[S+]([O-])c1c(C(=N)NO)nn(-c2c(Cl)cc(C(F)(F)F)cc2Cl)c1NCCC#N (stereo not drawn) [Compound 58, 5-[2-(Cyano)ethylamino]-1-[2,6-dichloro-4-(trifluoromethyl)phenyl]-N-hydroxy-4-methylsulfinyl-1H-pyrazole-3-carboximidamide]
The melting point of the first is lower: 131 to 134 °C for the first, 175 to 176 °C for the second.

Compared with `C[S+]([O-])CCNc1c([S+](C)[O-])c(C(=N)NO)nn1-c1c(Cl)cc(C(F)(F)F)cc1Cl` (stereo not drawn) [Compound 65, 1-[2,6-Dichloro-4-(trifluoromethyl)phenyl]-4-methylsulfinyl-5-[2-(methylsulfinyl)ethylamino]-N-hydroxy-1H-pyrazole-3-carboximidamide], `CC[S+]([O-])c1c(C(=N)NO)nn(-c2c(Cl)cc(C(F)(F)F)cc2Cl)c1NCC[S+](C)[O-]` (stereo not drawn) [Compound 64, 1-[2,6-Dichloro-4-(trifluoromethyl)phenyl]-4-ethylsulfinyl-5-[2-(methylsulfinyl)ethylamino]-N-hydroxy-1H-pyrazole-3-carboximidamide] is lower in melting point: 150 to 151 °C for the first, 108 to 109 °C for the second.

First: C[S+]([O-])c1c(C=NO)nn(-c2c(Cl)cc(OC(F)(F)F)cc2Cl)c1N (stereo not drawn) [Compound 4, 5-Amino-1-[2,6-dichloro-4-(trifluoromethoxy)phenyl]-4-methylsulfinyl-1H-pyrazole-3-carboxaldehyde oxime]
Second: CC[S+]([O-])c1c(C=NO)nn(-c2c(Cl)cc(OC(F)(F)F)cc2Cl)c1N (stereo not drawn) [Compound 37, 5-Amino-1-[2,6-dichloro-4-(trifluoromethoxy)phenyl]-4-ethylsulfinyl-1H-pyrazole-3-carboxaldehyde oxime]
The melting point of the first is lower: 144 to 146 °C for the first, 204 to 206 °C for the second.

First: CCOC(=O)C(C)C(=O)ON=Cc1nn(-c2c(Cl)cc(C(F)(F)F)cc2Cl)c(N)c1[S+](C)[O-] (stereo not drawn) [Compound 13, 5-Amino-1-[2,6-dichloro-4-(trifluoromethyl)phenyl]-4-methylsulfinyl-1H-pyrazole-3-carboxaldehyde O-[2-(ethoxycarbonyl)propionyl]oxime]
Second: CNC(=O)ON=Cc1nn(-c2c(Cl)cc(C(F)(F)F)cc2Cl)c(N)c1[S+](C)[O-] (stereo not drawn)
The melting point of the first is lower: 52 to 54 °C for the first, 146 to 147 °C for the second.

Compared with `CCSc1c(C=NO)nn(-c2c(Cl)cc(C(F)(F)F)cc2Cl)c1C` [Compound 33, 1-[2,6-Dichloro-4-(trifluoromethyl)phenyl]-4-ethylthio-5-methyl-1H-pyrazole-3-carboxaldehyde oxime], `CSc1c(C=NO)nn(-c2c(Cl)cc(C(F)(F)F)cc2Cl)c1N` [Compound 8, 5-Amino-1-[2,6-dichloro-4-(trifluoromethyl)phenyl]-4-methylthio-1H-pyrazole-3-carboxaldehyde oxime] is higher in melting point: 155 to 157 °C for the first, 179 to 181 °C for the second.

First: Cc1ccccc1C(=O)ON=Cc1nn(-c2c(Cl)cc(C(F)(F)F)cc2Cl)c(N)c1[S+](C)[O-] (stereo not drawn) [Compound 11, 5-Amino-1-[2,6-dichloro-4-(trifluoromethyl)phenyl]-4-methylsulfinyl-1H-pyrazole-3-carboxaldehyde O-(2-methylbenzoyl)oxime]
Second: CC(C)ON=Cc1nn(-c2c(Cl)cc(C(F)(F)F)cc2Cl)c(N)c1[S+](C)[O-] (stereo not drawn) [Compound 24, 5-Amino-1-[2,6-dichloro-4-(trifluoromethyl)phenyl]-4-methylsulfinyl-1H-pyrazole-3-carboxaldehyde O-(isopropyl)oxime]
The melting point of the first is lower: 107 to 110 °C for the first, 128 to 130 °C for the second.

Compared with `C[S+]([O-])c1cn(-c2c(Cl)cc(C(F)(F)F)cc2Cl)nc1C=NO` (stereo not drawn) [Compound 20, 1-[2,6-Dichloro-4-(trifluoromethyl)phenyl]-4-methylsulfinyl-1H-pyrazole-3-carboxaldehyde oxime], `CSc1c(C=NO)nn(-c2c(Cl)cc(C(F)(F)F)cc2Cl)c1N(C)C` [Compound 36, 1-[2,6-Dichloro-4-(trifluoromethyl)phenyl]-5-dimethylamino-4-methylthio-1H-pyrazole-3-carboxaldehyde oxime] is lower in melting point: 239 to 240 °C for the first, 178 to 181 °C for the second.

Compared with `C#CCNc1c([S+](C)[O-])c(C(=N)NO)nn1-c1c(Cl)cc(C(F)(F)F)cc1Cl` (stereo not drawn) [Compound 67, 1-[2,6-Dichloro-4-(trifluoromethyl)phenyl]-4-methylsulfinyl-5-[(prop-2-ynyl)amino]-N-hydroxy-1H-pyrazole-3-carboximidamide], `C[S+]([O-])c1c(C(=N)NO)nn(-c2c(Cl)cc(C(F)(F)F)cc2Cl)c1NCC(N)=O` (stereo not drawn) [Compound 59, 5-(Aminocarbonylmethylamino)-1-[2,6-dichloro-4-(trifluoromethyl)phenyl]-N-hydroxy-4-methylsulfinyl-1H-pyrazole-3-carboximidamide] is lower in melting point: 194 to 196 °C for the first, 119 to 120 °C for the second.

First: CSc1c(C=NOC(C)=O)nn(-c2c(Cl)cc(C(F)(F)F)cc2Cl)c1N [Compound 14, 5-Amino-1-[2,6-dichloro-4-(trifluoromethyl)phenyl]-4-methylthio-1H-pyrazole-3-carboxaldehyde O-(acetyl)oxime]
Second: Nc1c(SC(F)(F)F)c(C=NO)nn1-c1c(Cl)cc(C(F)(F)F)cc1Cl [Compound 6, 5-Amino-1-[2,6-dichloro-4-(trifluoromethyl)phenyl]-4-trifluoromethylthio-1H-pyrazole-3-carboxaldehyde oxime]
The melting point of the first is higher: 205.5 to 206.5 °C for the first, 163 to 169 °C for the second.

First: CCSc1c(C(=N)NO)nn(-c2c(Cl)cc(C(F)(F)F)cc2Cl)c1N [Compound 43, 5-Amino-1-[2,6-dichloro-4-(trifluoromethyl)phenyl]-N-hydroxy-4-ethylthio-1H-pyrazole-3-carboximidamide]
Second: N=C(NO)c1nn(-c2c(Cl)cc(C(F)(F)F)cc2Cl)c(N)c1[S+]([O-])CCF (stereo not drawn) [Compound 51, 5-Amino-1-[2,6-dichloro-4-(trifluoromethyl)phenyl]-N-hydroxy-4-(2-fluoroethylsulfinyl)-1H-pyrazole-3-carboximidamide]
The melting point of the first is lower: 170 to 175 °C for the first, 212 to 215 °C for the second.

Compared with `CC[S+]([O-])CCNc1c([S+]([O-])CC)c(C(=N)NO)nn1-c1c(Cl)cc(C(F)(F)F)cc1Cl` (stereo not drawn) [Compound 66, 1-[2,6-Dichloro-4-(trifluoromethyl)phenyl]-4-ethylsulfinyl-5-[2-(ethylsulfinyl)ethylamino]-N-hydroxy-1H-pyrazole-3-carboximidamide], `CN=C(NOC)c1nn(-c2c(Cl)cc(C(F)(F)F)cc2Cl)c(N)c1[S+](C)[O-]` (stereo not drawn) [Compound 50, 5-Amino-1-[2,6-dichloro-4-(trifluoromethyl)phenyl]-N-methoxy-N′-methyl-4-methylsulfinyl-1H-pyrazole-3-carboximidamide] is lower in melting point: 173 to 175 °C for the first, 139 to 142 °C for the second.

In the case of `C[S+]([O-])c1c(C=NO)nn(-c2ncc(C(F)(F)F)cc2Cl)c1N` (stereo not drawn) [Compound 32, 5-Amino-1-[3-chloro-5-(trifluoromethyl)-2-pyridinyl]-4-methylsulfinyl-1H-pyrazole-3-carboxaldehyde oxime], the melting point is reported as 195.5 to 196.5 °C.
